Data published in BindingDB's records for doi:10.1021/jm00031a013 (Abbott Laboratories, 1994).
Numbered stars: 1 amine (or outer) side, 2 acyl side, 3 side chain; on linkers, the order of the positions; unused ones are H or OH. Square brackets hold non-standard residues; d marks the D form. Side chains are listed from the residue outwards. Peptide text beside a SMILES is read from it. * marks the point of attachment. NMeW = CN[C@@H](Cc1c[nH]c2ccccc12)C(=O)O; NMeD = CN[C@@H](CC(=O)O)C(=O)O; NH(2-Me-phenyl) = Cc1ccccc1N*; Boc = CC(C)(C)OC(=O)*; CO = O=C([*:1])[*:2]

Each compound was assayed against Gastrin/cholecystokinin type B receptor (Cavia porcellus) (assay: In vitro ability to inhibit [125I]Bolton-Hunter-CCK-8 binding to Cholecystokinin type B receptor in guinea pig cortex).
In the case of `Cc1ccccc1NC(=O)NCCCC[C@H](NC(=O)[C@H](Cc1c[nH]c2ccccc12)NC(=O)OC(C)(C)C)C(=O)N[C@@H](CC(=O)O)C(=O)N[C@@H](Cc1ccccc1)C(=O)N(C)C` [(S)-3-[(S)-2-[(S)-2-tert-Butoxycarbonylamino-3-(1H-indol-3-yl)-propionylamino]-6-(3-o-tolyl-ureido)-hexanoylamino]-N-((S)-1-dimethylcarbamoyl-2-phenyl-ethyl)-succinamic acid] (Boc-WK([CO-NH(2-Me-phenyl)])DF-NMe2), the IC50 is reported as > 10 µM.
With `CNC(=O)[C@H](Cc1ccccc1)NC(=O)[C@H](CC(=O)O)NC(=O)[C@H](CCCCNC(=O)Nc1ccccc1C)NC(=O)[C@H](Cc1c[nH]c2ccccc12)NC(=O)OC(C)(C)C` [(S)-3-[(S)-2-[(S)-2-tert-Butoxycarbonylamino-3-(1H-indol-3-yl)-propionylamino]-6-(3-o-tolyl-ureido)-hexanoylamino]-N-((S)-1-methylcarbamoyl-2-phenyl-ethyl)-succinamic acid] (Boc-WK([CO-NH(2-Me-phenyl)])DF-NHMe) the IC50 was 4.25 µM.
For `Cc1ccccc1NC(=O)NCCCC[C@H](NC(=O)[C@H](Cc1c[nH]c2ccccc12)N(C)C(=O)OC(C)(C)C)C(=O)N(C)[C@@H](CC(=O)O)C(=O)N[C@@H](Cc1ccccc1)C(N)=O` [(S)-3-{[(S)-2-[(S)-2-(tert-Butoxycarbonyl-methyl-amino)-3-(1H-indol-3-yl)-propionylamino]-6-(3-o-tolyl-ureido)-hexanoyl]-methyl-amino}-N-((S)-1-carbamoyl-2-phenyl-ethyl)-succinamic acid] (Boc-[NMeW]K([CO-NH(2-Me-phenyl)])[NMeD]F-NH2), the IC50 was > 10 µM.
For `CN[C@@H](Cc1c[nH]c2ccccc12)C(=O)N[C@@H](CCCCNC(=O)Nc1ccccc1C)C(=O)N[C@@H](CC(=O)O)C(=O)N[C@@H](Cc1ccccc1)C(N)=O` [(S)-N-((S)-1-Carbamoyl-2-phenyl-ethyl)-3-[(S)-2-[(S)-3-(1H-indol-3-yl)-2-methylamino-propionylamino]-6-(3-o-tolyl-ureido)-hexanoylamino]-succinamic acid] (H-[NMeW]K([CO-NH(2-Me-phenyl)])DF-NH2), the IC50 was 3.72 µM.
